Here are results for 19 compounds from patent publication US8354416B2 (Glaxo Group Limited, priority 2005, dated 2013).

The test system of this experiment is influx of neutrophils to the lung in LPS-challenged rats. Put plainly: Rat LPS neutrophilia model. The class given is in vivo. The note with it: intratracheal, LPS aerosol 100 ug/ml, in at least one of the range of conditions tested, significance p<0.05. As to the method: Rat LPS Neutrophilia Model
The effect of compounds on the influx of neutrophils to the lung in LPS-challenged rats is evaluated as follows. The test compound is suspended in one of the following solutions: 0.5% tween 80/PBS, 0.5% tween 80/saline, 10% EtOH/saline (with pH adjusted to 2.0, or 8.0 with HCl, or unadjusted), Saline (pH 2.0, 6.5 or 8.0, 0.5% Tragacanth, 1% DMSO/20% Encapsin/Saline, or acidified 5% Tragacanth. The suspension process may be aided by the use of a glass homogenizer. For intratracheal administration, the animals are anesthetized with inhaled isoflurane and placed in a supine position, the trachea is intubated with a steel gavage needle (1.5 inch, 22 gauge, small ball) or a Penn-Century Microsprayer Aerosolizer (model IA-1B) and 200 ul of dosing solution is delivered. The animals are visually monitored during the recovery process, which typically occurs within two minutes. It is noted that the test compounds may be alternatively administered via the microsprayer in a dry powder blend with a suitable excipient, such as lactose.
Rats treated with compound or vehicle (15 min-24 hours pretreatment) are exposed to an LPS aerosol (100 ug/ml) for 15 min. Four hours later the rats are euthanized with pentobarbital (100 mg/kg, i.p.) and the airways are lavaged with 5 washes of 5 ml of phosphate buffered saline. The harvested cells are stained (Diffquick) and counted to determine total and differential cell data. […] Inhibition of neutrophil levels relative to no compound controls is calculated based on the differential counts.
The data is obtained as % inhibition using a particular concentration and pretreat time.

In the case of `Cc1ccc(C(=O)Nc2ccc(F)cc2)cc1-c1nc(NC2CC(C)(C)NC(C)(C)C2)nc2c1ccc(=O)n2-c1c(F)cccc1F` [Example 66, 3-{8-(2,6-difluorophenyl)-7-oxo-2-[(2,2,6,6-tetramethyl-4-piperidinyl)amino]-7,8-dihydropyrido[2,3-d]pyrimidin-4-yl}-N-(4-fluorophenyl)-4-methylbenzamide], the “inhibition of neutrophilia (neutrophil levels in airway lavage relative to no compound controls)” value is listed as “statistically significant inhibition of neutrophilia”.
To `Cc1ccc(C(=O)Nc2nccs2)cc1-c1nc(NC2CC(C)(C)NC(C)(C)C2)nc2c1ccc(=O)n2-c1c(F)cccc1F` [Example 67, 3-{8-(2,6-difluorophenyl)-7-oxo-2-[(2,2,6,6-tetramethyl-4-piperidinyl)amino]-7,8-dihydropyrido[2,3-d]pyrimidin-4-yl}-4-methyl-N-1,3-thiazol-2-ylbenzamide] belongs “statistically nonsignificant inhibition of neutrophilia”.
In the case of `Cc1ccc(C(=O)NC(C)C)cc1-c1nc(N2CCC(N)CC2)nc2c1ccc(=O)n2-c1c(F)cccc1F` [Example 68, 3-[2-(4-amino-1-piperidinyl)-8-(2,6-difluorophenyl)-7-oxo-7,8-dihydropyrido[2,3-d]pyrimidin-4-yl]-4-methyl-N-(1-methylethyl)benzamide], the “inhibition of neutrophilia (neutrophil levels in airway lavage relative to no compound controls)” value is listed as “statistically significant inhibition of neutrophilia”.
To `CCCNC(=O)c1ccc(C)c(-c2nc(N3CCC(N)CC3)nc3c2ccc(=O)n3-c2c(F)cccc2F)c1` [Example 69, 3-[2-(4-amino-1-piperidinyl)-8-(2,6-difluorophenyl)-7-oxo-7,8-dihydropyrido[2,3-d]pyrimidin-4-yl]-4-methyl-N-propylbenzamide] belongs “statistically significant inhibition of neutrophilia”; to `Cc1ccc(C(=O)NC2CCCC2)cc1-c1nc(N2CCC(N)CC2)nc2c1ccc(=O)n2-c1c(F)cccc1F` [Example 70, 3-[2-(4-amino-1-piperidinyl)-8-(2,6-difluorophenyl)-7-oxo-7,8-dihydropyrido[2,3-d]pyrimidin-4-yl]-N-cyclopentyl-4-methylbenzamide], “statistically nonsignificant inhibition of neutrophilia”.
To `Cc1ccc(C(=O)NCc2ccccc2)cc1-c1nc(N2CCC(N)CC2)nc2c1ccc(=O)n2-c1c(F)cccc1F` [Example 71, 3-[2-(4-amino-1-piperidinyl)-8-(2,6-difluorophenyl)-7-oxo-7,8-dihydropyrido[2,3-d]pyrimidin-4-yl]-4-methyl-N-(phenylmethyl)benzamide] belongs “statistically nonsignificant inhibition of neutrophilia”; to `Cc1ccc(C(=O)Nc2ccc(F)cc2)cc1-c1nc(N2CCC(N)CC2)nc2c1ccc(=O)n2-c1c(F)cccc1F` [Example 72, 3-[2-(4-amino-1-piperidinyl)-8-(2,6-difluorophenyl)-7-oxo-7,8-dihydropyrido[2,3-d]pyrimidin-4-yl]-N-(4-fluorophenyl)-4-methylbenzamide], “statistically significant inhibition of neutrophilia”.
To `Cc1ccc(C(=O)Nc2nccs2)cc1-c1nc(N2CCC(N)CC2)nc2c1ccc(=O)n2-c1c(F)cccc1F` [Example 73, 3-[2-(4-amino-1-piperidinyl)-8-(2,6-difluorophenyl)-7-oxo-7,8-dihydropyrido[2,3-d]pyrimidin-4-yl]-4-methyl-N-1,3-thiazol-2-ylbenzamide] belongs “statistically significant inhibition of neutrophilia”; to `Cc1ccc(C(=O)NC2CCCC2)cc1-c1nc(NCc2ncc[nH]2)nc2c1ccc(=O)n2-c1c(F)cccc1F` [Example 76, N-cyclopentyl-3-{8-(2,6-difluorophenyl)-2-[(1H-imidazol-2-ylmethyl)amino]-7-oxo-7,8-dihydropyrido[2,3-d]pyrimidin-4-yl}-4-methylbenzamide], “statistically nonsignificant inhibition of neutrophilia”; to `Cc1ccc(C(=O)NCc2ccccc2)cc1-c1nc(NCc2ncc[nH]2)nc2c1ccc(=O)n2-c1c(F)cccc1F` [Example 77, 3-{8-(2,6-difluorophenyl)-2-[(1H-imidazol-2-ylmethyl)amino]-7-oxo-7,8-dihydropyrido[2,3-d]pyrimidin-4-yl}-4-methyl-N-(phenylmethyl)benzamide], “statistically significant inhibition of neutrophilia”.
Take `Cc1ccc(C(=O)Nc2ccc(F)cc2)cc1-c1nc(NCc2ncc[nH]2)nc2c1ccc(=O)n2-c1c(F)cccc1F` [Example 78, 3-{8-(2,6-difluorophenyl)-2-[(1H-imidazol-2-ylmethyl)amino]-7-oxo-7,8-dihydropyrido[2,3-d]pyrimidin-4-yl}-N-(4-fluorophenyl)-4-methylbenzamide]: the “inhibition of neutrophilia (neutrophil levels in airway lavage relative to no compound controls)” value is “statistically significant inhibition of neutrophilia”.
For the compound `Cc1ccc(C(=O)Nc2ccc(F)cc2)cc1-c1nc(NCCN(C)C(=O)OC(C)(C)C)nc2c1ccc(=O)n2-c1c(F)cccc1F` [Example 95, 1,1-dimethylethyl (2-{[8-(2,6-difluorophenyl)-4-(5-{[(4-fluorophenyl)amino]carbonyl}-2-methylphenyl)-7-oxo-7,8-dihydropyrido[2,3-d]pyrimidin-2-yl]amino}ethyl)methylcarbamate], the “inhibition of neutrophilia (neutrophil levels in airway lavage relative to no compound controls)” value was “statistically nonsignificant inhibition of neutrophilia”.
Turning to `Cc1ccc(C(=O)Nc2ccc(F)cc2)cc1-c1nc(N(C)CCN(C)C)nc2c1ccc(=O)n2-c1c(F)cccc1F` [Example 99, 3-{8-(2,6-difluorophenyl)-2-[[2-(dimethylamino)ethyl](methyl)amino]-7-oxo-7,8-dihydropyrido[2,3-d]pyrimidin-4-yl}-N-(4-fluorophenyl)-4-methylbenzamide], the “inhibition of neutrophilia (neutrophil levels in airway lavage relative to no compound controls)” value is on record as “statistically nonsignificant inhibition of neutrophilia”.
On to `Cc1ccc(C(=O)Nc2nccs2)cc1-c1nc(NCCCNC(C)C)nc2c1ccc(=O)n2-c1c(F)cccc1F` [Example 101, 3-[8-(2,6-difluorophenyl)-2-({3-[(1-methylethyl)amino]propyl}amino)-7-oxo-7,8-dihydropyrido[2,3-d]pyrimidin-4-yl]-4-methyl-N-1,3-thiazol-2-ylbenzamide], for which the “inhibition of neutrophilia (neutrophil levels in airway lavage relative to no compound controls)” value is “statistically significant inhibition of neutrophilia”.
As to `Cc1ccc(C(=O)Nc2nccs2)cc1-c1nc(NCCCNC(C)(C)C)nc2c1ccc(=O)n2-c1c(F)cccc1F` [Example 102, 3-[8-(2,6-difluorophenyl)-2-({3-[(1,1-dimethylethyl)amino]propyl}amino)-7-oxo-7,8-dihydropyrido[2,3-d]pyrimidin-4-yl]-4-methyl-N-1,3-thiazol-2-ylbenzamide], the “inhibition of neutrophilia (neutrophil levels in airway lavage relative to no compound controls)” value is recorded as “statistically nonsignificant inhibition of neutrophilia”.
To `Cc1ccc(C(=O)Nc2nccs2)cc1-c1nc(NCCNC(C)C)nc2c1ccc(=O)n2-c1c(F)cccc1F` [Example 103, 3-[8-(2,6-difluorophenyl)-2-({2-[(1-methylethyl)amino]ethyl}amino)-7-oxo-7,8-dihydropyrido[2,3-d]pyrimidin-4-yl]-4-methyl-N-1,3-thiazol-2-ylbenzamide] belongs “statistically significant inhibition of neutrophilia”.
With `CCCNC(=O)c1ccc(C)c(-c2nc(N(C)CCCN(C)C)nc3c2ccc(=O)n3-c2c(F)cccc2F)c1` [Example 104, 3-{8-(2,6-difluorophenyl)-2-[[3-(dimethylamino)propyl](methyl)amino]-7-oxo-7,8-dihydropyrido[2,3-d]pyrimidin-4-yl}-4-methyl-N-propylbenzamide], the “inhibition of neutrophilia (neutrophil levels in airway lavage relative to no compound controls)” value is on record as “statistically significant inhibition of neutrophilia”.
As to `CCCNC(=O)c1ccc(C)c(-c2nc(NCCN(C)C)nc3c2ccc(=O)n3-c2c(F)cccc2F)c1` [Example 105, 3-(8-(2,6-difluorophenyl)-2-{[2-(dimethylamino)ethyl]amino}-7-oxo-7,8-dihydropyrido[2,3-d]pyrimidin-4-yl)-4-methyl-N-propylbenzamide], the “inhibition of neutrophilia (neutrophil levels in airway lavage relative to no compound controls)” value is “statistically significant inhibition of neutrophilia”.
`Cc1ccc(C(=O)Nc2nccs2)cc1-c1nc(N(C)CCCN(C)C)nc2c1ccc(=O)n2-c1c(F)cccc1F` [Example 107, 3-{8-(2,6-difluorophenyl)-2-[[3-(dimethylamino)propyl](methyl)amino]-7-oxo-7,8-dihydropyrido[2,3-d]pyrimidin-4-yl}-4-methyl-N-1,3-thiazol-2-ylbenzamide]: the “inhibition of neutrophilia (neutrophil levels in airway lavage relative to no compound controls)” value is listed as “statistically significant inhibition of neutrophilia”.
